The source of these data is publication PMC9187613 (Bioorganic chemistry, 2022).

In one data set the target is ZIKV NS2B-NS3 protease (Zika virus, UniProt A0A024B7W1). Put plainly: NS2B-NS3 protease activity assay. Type of data set: biochemical. Conditions: for inhibition of protease activity: single 200 μM concentration, 80% threshold.
In another data set the target is ZIKV NS5 RdRp (Zika virus, UniProt A0A024B7W1). As to the kind of experiment: NS5 RNA-dependent RNA-polymerase activity assay. Conditions: for inhibition of the RdRp (in words): activity assays. Format: biochemical.
Another data set has as its system Vero cells. As to the kind of experiment: Cytotoxicity assay. Conditions: for CC50: 48 h, LDH release. (LDH leaks from cells whose membrane has failed.)
The test system of data set [1] is Zika virus (ATCC strain MR 766). As to the kind of experiment: ZIKV replication in Vero cells, virus titers by plaque assay. The following applies: for concentration at which replication was blocked completely: 48 h; for EC50: read-out: Antiviral EC50, MOI 1, 48 h, plaque assay.
A further data set relates to DENV2 NS2B-NS3 protease. Conditions: cited from earlier work.
Data set [2] deals with papain-like protease (PL^pro). Conditions: cited from earlier work.
Setting [3] is: read-out: NS3pro IC50, 4 nM enzyme, 30 μM Bz-nKRR-AMC, 37 °C.

Entries after “also recorded” stand apart in the source; their conditions may differ. Where two headings read alike, the source gives them in different places. Where only a bound is given, the exact number is not on record here.

ZIKV NS2B-NS3 protease, sequence (A0A024B7W1 1425-1464): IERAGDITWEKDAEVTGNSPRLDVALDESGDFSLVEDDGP
ZIKV NS2B-NS3 protease, sequence (A0A024B7W1 1503-1680): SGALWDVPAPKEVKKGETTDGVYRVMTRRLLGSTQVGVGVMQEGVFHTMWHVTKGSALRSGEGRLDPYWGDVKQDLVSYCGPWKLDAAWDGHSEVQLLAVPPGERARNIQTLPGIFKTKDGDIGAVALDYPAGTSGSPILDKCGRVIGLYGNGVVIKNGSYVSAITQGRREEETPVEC
ZIKV NS5 RdRp, sequence (A0A024B7W1 2826-3423): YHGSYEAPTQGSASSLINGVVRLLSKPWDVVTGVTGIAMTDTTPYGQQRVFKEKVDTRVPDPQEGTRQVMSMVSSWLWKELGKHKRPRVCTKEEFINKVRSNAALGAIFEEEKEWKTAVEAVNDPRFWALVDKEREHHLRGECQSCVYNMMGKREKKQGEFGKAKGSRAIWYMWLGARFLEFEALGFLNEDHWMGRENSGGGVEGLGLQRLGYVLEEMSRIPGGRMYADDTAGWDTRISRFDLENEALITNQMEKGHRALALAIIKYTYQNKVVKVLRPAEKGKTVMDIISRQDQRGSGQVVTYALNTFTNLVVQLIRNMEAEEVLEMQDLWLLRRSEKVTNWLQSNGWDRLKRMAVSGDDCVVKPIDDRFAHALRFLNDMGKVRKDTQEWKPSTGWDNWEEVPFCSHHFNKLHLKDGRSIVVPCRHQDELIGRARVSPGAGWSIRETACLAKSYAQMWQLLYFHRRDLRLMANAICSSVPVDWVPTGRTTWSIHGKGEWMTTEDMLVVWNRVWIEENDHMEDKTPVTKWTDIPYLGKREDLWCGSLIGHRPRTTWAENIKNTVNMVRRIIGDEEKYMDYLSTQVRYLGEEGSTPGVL

What is called IC50 is the point on the concentration scale where inhibition reaches its midpoint. By CC50 is commonly meant the concentration at which the toxic effect on the cells reaches its halfway point. By EC50 is commonly meant the concentration at which the effect is half-maximal. Take `COc1ccc(C(=O)/C=C/c2ccc(O)cc2)c(O)c1CC=C(C)C` [4-HD, 4-hydroxyderricin]: at ZIKV NS2B-NS3 protease (setting [3]), the IC50 amounted to 47 ± 10 µM. Further, at ZIKV NS2B-NS3 protease, the “inhibition of protease activity” value is recorded as greater than 80%. Also, the “inhibition of the RdRp (in words)” value against ZIKV NS5 RdRp is “XA, but not 4HD or XA-E, inhibited”. In the data set with Vero cells, this molecule gave a CC50 of 103 ± 14 µM. Also, in data set [1], the “concentration at which replication was blocked completely” value was determined as 45 µM and the EC50 stood at 6.6 µM.

On to `CC(C)=CC[C@@H]1C(C)=CC[C@@H](c2ccccc2)[C@@H]1C(=O)c1c(O)cc(O)cc1O` [4-hydroxypanduratin A], for which, in the data set on DENV2 NS2B-NS3 protease, the “mode of DENV2 NS2B-NS3 protease inhibition” value is listed as “competitive inhibitory activity”.

As a reminder, the inhibition is the change of the read-out against control, counted positive when it falls. As to `CC(C)=CCC/C(C)=C/Cc1c(O)ccc(C(=O)/C=C/c2ccc(O)cc2)c1O` [XA, Xanthoangelol], the IC50 against ZIKV NS2B-NS3 protease was found to be 50 ± 5 µM; at ZIKV NS5 RdRp, 6.9 ± 0.9 µM. The inhibition at 200 µM at ZIKV NS2B-NS3 protease (read-out: inhibition of protease activity) is greater than 80%. In addition, at ZIKV NS5 RdRp (20 μM endpoint assay), the “inhibition of polymerase activity” value is 85%. Besides, in the data set on Vero cells, the “cytotoxic effects (in words)” value is “did not display cytotoxic”. For the same molecule, in data set [1] (concentrations exceeding 50 μM), the “anti-ZIKV activity (in words)” value is “relatively weak anti-ZIKV activity; also recorded: only weak inhibition of ZIKV growth”.

Turning to `C=C(C)C(Cc1c(OC)ccc(C(=O)/C=C/c2ccc(O)cc2)c1O)OO` (centres unmarked) [XA-E, Xanthoangelol E], the “mode of protease inhibition” value at ZIKV NS2B-NS3 protease (Michaelis-Menten and Lineweaver-Burk, consistent Km, decreasing Vmax) is on record as “noncompetitive mode of inhibition”. The IC50 on ZIKV NS2B-NS3 protease (setting [3]) is 18 ± 5 µM. The “inhibition of protease activity” value against ZIKV NS2B-NS3 protease is listed as greater than 80%. For the same molecule, the “inhibition of the RdRp (in words)” value against ZIKV NS5 RdRp is on record as “XA, but not 4HD or XA-E, inhibited”. Besides, the “mode of SARS-CoV PL^pro inhibition” value in data set [2] is recorded as “non-competitive mode”. Further, in data set [2] (read-out: SARS-CoV PL^pro IC50), the IC50 is 1.2 µM. Further, in the data set on Vero cells, it took 111 ± 10 µM to reach half-maximal cytotoxicity (CC50). In addition, in data set [1], the “concentration at which replication was blocked completely” value came to 75 µM and the EC50 came to 22 µM.

On to `COc1cc(O)c(C(=O)[C@@H]2[C@H](CC=C(C)C)C(C)=CC[C@H]2c2ccccc2)c(O)c1` [panduratin A], for which, in the data set on DENV2 NS2B-NS3 protease, the “mode of DENV2 NS2B-NS3 protease inhibition” value is on record as “competitive inhibitory activity”.
